Assay results from patent publication US10301664B2, “Repurposing non-antimicrobial drugs and clinical molecules to treat bacterial infections” (Purdue Research Foundation, priority 2015, dated 2019).
≈ marks a conversion by molar mass, not a printed value. Where two headings read alike, the source gives them in different places.

How the values were obtained:
[1] = test system: Methicillin-sensitive S. aureus (MSSA); experiment: MIC and MBC against methicillin-sensitive S. aureus isolates (CLSI); assay type: cell-based; conditions: Staphylococcus aureus
[2] = test system: VISA and VRSA (14) clinical isolates; experiment: MIC against Gram +ve clinical isolates: VISA and VRSA; assay type: cell-based, S. aureus; conditions: Staphylococcus aureus
P. aeruginosa = experiment: MIC against G-ve with and without colistin: P. aeruginosa; assay type: cell-based; conditions: without colistin
MRSA USA200 = assay type: in vivo, BALB/c mice; conditions: oral, EB 30 mg/kg or FdUrd 25 mg/kg once daily for three days, monitored six days
Experimental: Animal procedures were approved by the Purdue University Animal Care and Use Committee (PACUC) (protocol no. 1311000988). Eight-week-old female BALB/c mice (Harlan Laboratories, Indianapolis, Ind.) were used for this study. Mice were rendered neutropenic by treatment with cyclophosphamide intraperitoneally (IP) 150 and 100 mg/kg at four days and one day before infection, respectively. Neutropenic mice were inoculated IP with 8×10^8 MRSA USA200. At one hour after infection, the mice were divided into five groups (n=10 per group), and two groups were treated orally with either EB 30 mg/kg or FdUrd 25 mg/kg. Two groups were treated IP with either EB 30 mg/kg or FdUrd 25 mg/kg. One group was used as a control with no treatment. Treatment was continued once daily for two more days (animals received three doses total). Mortality was monitored four times daily for six days, and the cumulative percent survival was determined. The data were subjected to statistical analysis using Kaplan-Meier survival curves. A log rank test was performed for 95% confidence intervals by GraphPad Prism 6.0 (GraphPad Software, La Jolla, Calif.).

[3] = test system: clinical isolates of S. aureus; experiment: MIC90 over clinical isolates of S. aureus; assay type: cell-based; conditions: Staphylococcus aureus, Table 1, read-out: MIC90 (MIC at which 90% of clinical isolates of S. aureus were inhibited)
[4] = test system: vancomycin resistant E. faecium ATCC 700221 (VRE); experiment: Library hits: MIC/MBC against VRE; assay type: cell-based; conditions: VRE
[5] = test system: E. fecalis ATCC 51229 (VRE); experiment: MIC and MBC against E. fecalis VRE (CLSI); assay type: cell-based; conditions: Enterococcus
Experimental: The NIH Clinical Collections 1 and 2 (http://www.nihclinicalcollection.com) containing 727 FDA approved drugs and small molecules previously used in human clinical trials with known safety profiles were screened against ESKAPE pathogens. The library was initially screened at a single concentration of 16 μM to identify “hit” non-antibacterial drugs. Once the antimicrobial activity of the drugs was confirmed, we determined their MICs and minimum bactericidal concentrations (MBCs) according to the Clinical and Laboratory Standards Institute (CLSI).

[6] = cited from earlier work
[7] = test system: Vancomycin-resistant S. aureus (VRSA); experiment: MIC and MBC against vancomycin-resistant S. aureus clinical isolates (CLSI); assay type: cell-based
S. epidermidis NRS 101 = experiment: MIC and MBC against S. epidermidis (CLSI); assay type: cell-based; conditions: Staphylococcus epidermidis, NRS101
[8] = test system: Methicillin resistant S. aureus (MRSA); experiment: MIC and MBC against methicillin resistant S. aureus clinical isolates (CLSI); assay type: cell-based; conditions: Staphylococcus aureus
[9] = test system: Vancomycin-intermediate S. aureus (VISA); experiment: MIC and MBC against vancomycin-intermediate S. aureus isolates (CLSI); assay type: cell-based; conditions: Staphylococcus aureus
[10] = test system: E. faecium ATCC 700221 (VRE); experiment: MIC and MBC against E. faecium VRE (CLSI), Table 1; assay type: cell-based; conditions: Enterococcus faecium
MRSA USA300 = experiment: Library hits: MIC/MBC against MRSA; assay type: cell-based, Staphylococcus aureus; conditions: Staphylococcus aureus

O=c1c2ccccc2[se]n1-c1ccccc1 [Ebselen]
MBC ([1]; MSSA / NRS 72, read-out: MBC): 0.5 µg/mL (≈ 1.82 µM)
MIC ([1]; MSSA / NRS 72, read-out: MIC): 0.25 µg/mL (≈ 0.912 µM)
MBC ([1]; MSSA / NRS 77, read-out: MBC): 1 µg/mL (≈ 3.65 µM)
MIC ([1]; MSSA / NRS 77, read-out: MIC): 0.25 µg/mL (≈ 0.912 µM)
MBC ([1]; MSSA / NRS 846): > 64 µg/mL
MIC ([1]; MSSA / NRS 846): 0.125 µg/mL (≈ 0.456 µM)
MBC ([1]; MSSA / NRS 860, read-out: MBC): 0.25 µg/mL (≈ 0.912 µM)
MIC ([1]; MSSA / NRS 860, read-out: MIC): 0.25 µg/mL (≈ 0.912 µM)
MIC50 [2]: 0.125 µg/mL (≈ 0.456 µM)
MIC50 ([2]; read-out: MIC50): 0.25 µg/mL (≈ 0.912 µM)
MIC, colistin (−) (P. aeruginosa): >256 µg/mL
mice survival compared to that of control (MRSA USA200): 60%
MIC90 [3]: 0.25 µg/mL (≈ 0.912 µM)
MBC [4]: 1 µM (≈ 0.274 µg/mL)
MIC ([4]; read-out: MIC): 0.5 µM (≈ 0.137 µg/mL)
MBC [5]: 0.5 µg/mL (≈ 1.82 µM)
MIC [5]: 0.5 µg/mL (≈ 1.82 µM)
increase in selenium concentration in the blood ([6]; 30 mg/kg dose): 0.84±0.1 mg/L^−1
plasma concentration ([6]; 30 mg/kg dose): 2.91 mg/L
clinically achievable blood concentration ([6]; in vivo): 2.91 µg/mL
MIC ([7]; Staphylococcus aureus, VRSA): 0.125 µg/mL (≈ 0.456 µM)
MBC ([7]; Staphylococcus aureus, VRSA, VRSA1, read-out: MBC): 0.25 µg/mL (≈ 0.912 µM)
MIC ([7]; Staphylococcus aureus, VRSA, VRSA1, read-out: MIC): 0.25 µg/mL (≈ 0.912 µM)
MBC ([7]; Staphylococcus aureus, VRSA, VRSA2, read-out: MBC): 0.25 µg/mL (≈ 0.912 µM)
MIC ([7]; Staphylococcus aureus, VRSA, VRSA2, read-out: MIC): 0.25 µg/mL (≈ 0.912 µM)
MBC ([7]; Staphylococcus aureus, VRSA, VRSA3a, read-out: MBC): 0.25 µg/mL (≈ 0.912 µM)
MIC ([7]; Staphylococcus aureus, VRSA, VRSA3a, read-out: MIC): 0.25 µg/mL (≈ 0.912 µM)
MBC ([7]; Staphylococcus aureus, VRSA, VRSA3b, read-out: MBC): 1 µg/mL (≈ 3.65 µM)
MIC ([7]; Staphylococcus aureus, VRSA, VRSA3b, read-out: MIC): 0.25 µg/mL (≈ 0.912 µM)
MBC ([7]; Staphylococcus aureus, VRSA, VRSA4): 0.125 µg/mL (≈ 0.456 µM)
MBC ([7]; Staphylococcus aureus, VRSA, VRSA5, read-out: MBC): 0.25 µg/mL (≈ 0.912 µM)
MIC ([7]; Staphylococcus aureus, VRSA, VRSA5, read-out: MIC): 0.25 µg/mL (≈ 0.912 µM)
MBC ([7]; Staphylococcus aureus, VRSA, VRSA6, read-out: MBC): 0.5 µg/mL (≈ 1.82 µM)
MIC ([7]; Staphylococcus aureus, VRSA, VRSA6, read-out: MIC): 0.25 µg/mL (≈ 0.912 µM)
MBC ([7]; Staphylococcus aureus, VRSA, VRSA7, read-out: MBC): 0.5 µg/mL (≈ 1.82 µM)
MIC ([7]; Staphylococcus aureus, VRSA, VRSA7, read-out: MIC): 0.5 µg/mL (≈ 1.82 µM)
MBC ([7]; Staphylococcus aureus, VRSA, VRSA8): 0.125 µg/mL (≈ 0.456 µM)
MBC ([7]; Staphylococcus aureus, VRSA, VRSA9, read-out: MBC): 0.5 µg/mL (≈ 1.82 µM)
MIC ([7]; Staphylococcus aureus, VRSA, VRSA9, read-out: MIC): 0.25 µg/mL (≈ 0.912 µM)
MBC ([7]; Staphylococcus aureus, VRSA, VRSA10, read-out: MBC): 0.25 µg/mL (≈ 0.912 µM)
MIC ([7]; Staphylococcus aureus, VRSA, VRSA10, read-out: MIC): 0.25 µg/mL (≈ 0.912 µM)
MBC ([7]; Staphylococcus aureus, VRSA, VRSA11b, read-out: MBC): 0.25 µg/mL (≈ 0.912 µM)
MIC ([7]; Staphylococcus aureus, VRSA, VRSA11b, read-out: MIC): 0.25 µg/mL (≈ 0.912 µM)
MBC ([7]; Staphylococcus aureus, VRSA, VRSA12, read-out: MBC): 0.5 µg/mL (≈ 1.82 µM)
MIC ([7]; Staphylococcus aureus, VRSA, VRSA12, read-out: MIC): 0.25 µg/mL (≈ 0.912 µM)
MBC ([7]; Staphylococcus aureus, VRSA, VRSA13, read-out: MBC): 0.25 µg/mL (≈ 0.912 µM)
MIC ([7]; Staphylococcus aureus, VRSA, VRSA13, read-out: MIC): 0.25 µg/mL (≈ 0.912 µM)
MIC ([7]; VRSA8): 0.125/0.125 mg/L
MIC ([7]; VRSA11a): 0.125 µg/mL (≈ 0.456 µM)
MBC (S. epidermidis NRS 101): 0.5 µg/mL (≈ 1.82 µM)
MIC (S. epidermidis NRS 101): 0.5 µg/mL (≈ 1.82 µM)
MBC ([8]; MRSA / NRS 70, read-out: MBC): 0.25 µg/mL (≈ 0.912 µM)
MIC ([8]; MRSA / NRS 70, read-out: MIC): 0.25 µg/mL (≈ 0.912 µM)
MBC ([8]; MRSA / NRS 71, read-out: MBC): 0.25 µg/mL (≈ 0.912 µM)
MIC ([8]; MRSA / NRS 71, read-out: MIC): 0.25 µg/mL (≈ 0.912 µM)
MBC ([8]; MRSA / NRS 100, read-out: MBC): 0.5 µg/mL (≈ 1.82 µM)
MIC ([8]; MRSA / NRS 100, read-out: MIC): 0.25 µg/mL (≈ 0.912 µM)
MBC ([8]; MRSA / NRS 108, read-out: MBC): 0.25 µg/mL (≈ 0.912 µM)
MIC ([8]; MRSA / NRS 108, read-out: MIC): 0.25 µg/mL (≈ 0.912 µM)
MBC ([8]; MRSA / NRS 119): 0.25 µg/mL (≈ 0.912 µM)
MIC ([8]; MRSA / NRS 119): 0.125 µg/mL (≈ 0.456 µM)
MBC ([8]; MRSA / NRS 123, read-out: MBC): 0.5 µg/mL (≈ 1.82 µM)
MIC ([8]; MRSA / NRS 123, read-out: MIC): 0.25 µg/mL (≈ 0.912 µM)
MBC ([8]; MRSA / NRS 194, read-out: MBC): 1 µg/mL (≈ 3.65 µM)
MIC ([8]; MRSA / NRS 194, read-out: MIC): 0.25 µg/mL (≈ 0.912 µM)
MBC ([8]; MRSA / NRS 382): 0.125 µg/mL (≈ 0.456 µM)
MIC ([8]; MRSA / NRS 382): 0.125 µg/mL (≈ 0.456 µM)
MBC ([8]; MRSA / NRS 383): 0.125 µg/mL (≈ 0.456 µM)
MIC ([8]; MRSA / NRS 383): 0.125 µg/mL (≈ 0.456 µM)
MBC ([8]; MRSA / NRS 384): 0.125 µg/mL (≈ 0.456 µM)
MIC ([8]; MRSA / NRS 384): 0.125 µg/mL (≈ 0.456 µM)
MBC ([8]; MRSA / NRS 385, NRS 385, read-out: MBC): 1 µg/mL (≈ 3.65 µM)
MIC ([8]; MRSA / NRS 385, NRS 385, read-out: MIC): 0.5 µg/mL (≈ 1.82 µM)
MBC ([8]; MRSA / NRS 386): 1 µg/mL (≈ 3.65 µM)
MIC ([8]; MRSA / NRS 386): 0.125 µg/mL (≈ 0.456 µM)
MBC ([8]; MRSA / NRS 387): 0.25 µg/mL (≈ 0.912 µM)
MIC ([8]; MRSA / NRS 387): 0.125 µg/mL (≈ 0.456 µM)
MBC ([8]; MRSA / NRS 483): 0.5 µg/mL (≈ 1.82 µM)
MIC ([8]; MRSA / NRS 483): 0.125 µg/mL (≈ 0.456 µM)
MBC ([8]; MRSA / NRS 484, NRS 484, read-out: MBC): 0.25 µg/mL (≈ 0.912 µM)
MIC ([8]; MRSA / NRS 484, NRS 484, read-out: MIC): 0.25 µg/mL (≈ 0.912 µM)
MBC ([9]; NRS 1 / VISA): 0.125 µg/mL (≈ 0.456 µM)
MIC ([9]; NRS 1 / VISA): 0.125 µg/mL (≈ 0.456 µM)
MBC ([9]; NRS 37 / VISA): 0.125 µg/mL (≈ 0.456 µM)
MIC ([9]; NRS 37 / VISA): 0.125 µg/mL (≈ 0.456 µM)
MBC [10]: 1 µg/mL (≈ 3.65 µM)
MIC [10]: 0.5 µg/mL (≈ 1.82 µM)
MBC (MRSA USA300; read-out: MBC): 0.5 µM (≈ 0.137 µg/mL)
MIC (MRSA USA300; read-out: MIC): < 0.5 µM
